The values that follow come from the supplement of paper PMC11208160.

The data set is described as follows: recombinant UMI read abundance after kanamycin selection (control-corrected) (log10(CPM+1)); higher = more efficient recombination; extreme values may be limits of the assay; sequences stand for … in AGTGCAGAGAAAATCGGCCAGTTTTCTCTGCCTGCAGTCCGCATGCCGTGGGACCCCTTGGGTTCTAACCTGTTGCCTAGATTTATGCAGCGGACTGCCTTTCTCCCAAAGTGATAAACCGG…AGGTTGGTTTCACT; site = the 11-nt donor. In outline: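 Reported values are log10(CPM+1) from a pooled Escherichia coli screen of donor and donor-binding-loop pairs for the IS621 bridge recombinase. Selection used IPTG (0.07 mM) plus kanamycin, against unselected plating, each in two replicates. Recombinant UMIs were amplified across the donor–target junction, sequenced, converted to CPM, averaged over replicates and scaled by control-derived factors.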
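Note: IS621 bridge recombinase in Escherichia coli cells against a fixed T5 target plasmid.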

For the sequence “CACCGCCCATGGACCGGTTTTCCCGGTAATCCGTATTTGTT (site CACTGCCCTAA)”, the “recombinant UMI read abundance (log10)” value was found to be 0.0163. Then “CACCGCGCATGGACCGGTTTTCCCGGTAATCCGTATTTGTC (site CACCGCGCTGA)”, with 2.33; and “CACCGTACATGGACCGGTTTTCCCGGTAATCCGTATTTGAT (site CACCGTACTAT)”, with 1.95.

In the case of “CACCGTACATGGACCGGTTTTCCCGGTAATCCGTATTTGCT (site CACCGTACTAG)”, the “recombinant UMI read abundance (log10)” value turned out to be 2.18. On to “CACCGTACATGGACCGGTTTTCCCGGTAATCCGTATTTGCT (site CCCCGTACTAG)”, for which the “recombinant UMI read abundance (log10)” value amounted to 0.363. Regarding “CACCGTACATGGACCGGTTTTCCCGGTAATCCGTATTTGCT (site CGCCGTACTAG)”, the “recombinant UMI read abundance (log10)” value was 0.614. Then “CACCGTACATGGACCGGTTTTCCCGGTAATCCGTATTTGCT (site CTCCGTACTAG)”, with 0.912; and “CACCTGGCATGGACCGGTTTTCCCGGTAATCCGTATTTGGA (site CACATGGCTTC)”, with 0.0162; and “CACCTGGCATGGACCGGTTTTCCCGGTAATCCGTATTTGGA (site CACCTGGCTTC)”, with 0.595. “CACCTGGCATGGACCGGTTTTCCCGGTAATCCGTATTTGGA (site CACGTGGCTTC)”: the “recombinant UMI read abundance (log10)” value was 0.0355. As for “CACCTGGCATGGACCGGTTTTCCCGGTAATCCGTATTTGGA (site CACTTGGCTTC)”, the “recombinant UMI read abundance (log10)” value was 0.0384.

“CACGCCTCATGGACCGGTTTTCCCGGTAATCCGTATTTGAA (site CACGCCTCTTT)”: the “recombinant UMI read abundance (log10)” value is 2.67. As for “CACGCCTCATGGACCGGTTTTCCCGGTAATCCGTATTTGGC (site CACGCCTCTGC)”, the “recombinant UMI read abundance (log10)” value amounted to 2.52. Regarding “CACGGCCCATGGACCGGTTTTCCCGGTAATCCGTATTTGTC (site CACGGCCCTAA)”, the “recombinant UMI read abundance (log10)” value was 0.214.

For “CACGGCCCATGGACCGGTTTTCCCGGTAATCCGTATTTGTC (site CACGGCCCTCA)”, the “recombinant UMI read abundance (log10)” value is 0.166. Take “CACGGCCCATGGACCGGTTTTCCCGGTAATCCGTATTTGTC (site CACGGCCCTGA)”: the “recombinant UMI read abundance (log10)” value worked out at 1.59. The result for “CACGGCCCATGGACCGGTTTTCCCGGTAATCCGTATTTGTC (site CACGGCCCTTA)” reads 0.469; that for “CACGGCTCATGGACCGGTTTTCCCGGTAATCCGTATTTGCC (site CACGGCTCTGG)”, 3.3; that for “CACTACACATGGACCGGTTTTCCCGGTAATCCGTATTTGCT (site CACTACACTAG)”, 2.44.

For the sequence “CACTACACATGGACCGGTTTTCCCGGTAATCCGTATTTGCT (site CCCTACACTAG)”, the “recombinant UMI read abundance (log10)” value is 1.16. As to “CACTACACATGGACCGGTTTTCCCGGTAATCCGTATTTGCT (site CGCTACACTAG)”, the “recombinant UMI read abundance (log10)” value was 0.729. Take “CACTACACATGGACCGGTTTTCCCGGTAATCCGTATTTGCT (site CTCTACACTAG)”: the “recombinant UMI read abundance (log10)” value is 1.79. With “CACTCCCCATGGACCGGTTTTCCCGGTAATCCGTATTTGCC (site CACTCCACTGG)”, the “recombinant UMI read abundance (log10)” value worked out at 0. Turning to “CACTCCCCATGGACCGGTTTTCCCGGTAATCCGTATTTGCC (site CACTCCCCTGG)”, the “recombinant UMI read abundance (log10)” value turned out to be 1.23. Regarding “CACTCCCCATGGACCGGTTTTCCCGGTAATCCGTATTTGCC (site CACTCCGCTGG)”, the “recombinant UMI read abundance (log10)” value was 0. Then “CACTCCCCATGGACCGGTTTTCCCGGTAATCCGTATTTGCC (site CACTCCTCTGG)”, with 1.43. For “CACTCCTCATGGACCGGTTTTCCCGGTAATCCGTATTTGCT (site CACTCCTCTAG)”, the “recombinant UMI read abundance (log10)” value is 3.09. Then “CACTCCTCATGGACCGGTTTTCCCGGTAATCCGTATTTGCT (site CACTCCTCTCG)”, with 0.583; and “CACTCCTCATGGACCGGTTTTCCCGGTAATCCGTATTTGCT (site CACTCCTCTGG)”, with 2.08. For “CACTCCTCATGGACCGGTTTTCCCGGTAATCCGTATTTGCT (site CACTCCTCTTG)”, the “recombinant UMI read abundance (log10)” value amounted to 1.69. For the sequence “CACTCCTCATGGACCGGTTTTCCCGGTAATCCGTATTTGTC (site CACTCCTCTGA)”, the “recombinant UMI read abundance (log10)” value stood at 3.16. Consider “CACTCCTCATGGACCGGTTTTCCCGGTAATCCGTATTTGTC (site CACTCCTCTGC)”, for which the “recombinant UMI read abundance (log10)” value was 1.7. As to “CACTCCTCATGGACCGGTTTTCCCGGTAATCCGTATTTGTC (site CACTCCTCTGG)”, the “recombinant UMI read abundance (log10)” value came to 2.55. As to “CACTCCTCATGGACCGGTTTTCCCGGTAATCCGTATTTGTC (site CACTCCTCTGT)”, the “recombinant UMI read abundance (log10)” value was 3.06. Regarding “CACTCGGCATGGACCGGTTTTCCCGGTAATCCGTATTTGAT (site CACTCGGCTAT)”, the “recombinant UMI read abundance (log10)” value came out at 2.18.

As to “CACTCGGCATGGACCGGTTTTCCCGGTAATCCGTATTTGTA (site CACTCGGCTTA)”, the “recombinant UMI read abundance (log10)” value turned out to be 2.18.

Consider “CACTCTACATGGACCGGTTTTCCCGGTAATCCGTATTTGTA (site CACTCTACTTA)”, for which the “recombinant UMI read abundance (log10)” value came to 0.722. Turning to “CACTGATCATGGACCGGTTTTCCCGGTAATCCGTATTTGCT (site CACTGATCTAG)”, the “recombinant UMI read abundance (log10)” value came out at 2.61. Then “CACTGATCATGGACCGGTTTTCCCGGTAATCCGTATTTGGG (site CACTGATCTCC)”, with 1.27. Then “CACTTCGCATGGACCGGTTTTCCCGGTAATCCGTATTTGGA (site CACTTAGCTTC)”, with 0.0127; and “CACTTCGCATGGACCGGTTTTCCCGGTAATCCGTATTTGGA (site CACTTCGCTTC)”, with 0.493. In the case of “CACTTCGCATGGACCGGTTTTCCCGGTAATCCGTATTTGGA (site CACTTGGCTTC)”, the “recombinant UMI read abundance (log10)” value amounted to 0. Take “CACTTCGCATGGACCGGTTTTCCCGGTAATCCGTATTTGGA (site CACTTTGCTTC)”: the “recombinant UMI read abundance (log10)” value stood at 0.00357. Take “CACTTGGCATGGACCGGTTTTCCCGGTAATCCGTATTTGCA (site CACTTGGCTTA)”: the “recombinant UMI read abundance (log10)” value is 0.00954. For the sequence “CACTTGGCATGGACCGGTTTTCCCGGTAATCCGTATTTGCA (site CACTTGGCTTC)”, the “recombinant UMI read abundance (log10)” value amounted to 0.0203. As for “CACTTGGCATGGACCGGTTTTCCCGGTAATCCGTATTTGCA (site CACTTGGCTTG)”, the “recombinant UMI read abundance (log10)” value was found to be 0.498. Take “CACTTGGCATGGACCGGTTTTCCCGGTAATCCGTATTTGCA (site CACTTGGCTTT)”: the “recombinant UMI read abundance (log10)” value was determined as 0.0216. Consider “CACTTGGCATGGACCGGTTTTCCCGGTAATCCGTATTTGCT (site CACTTGGCTAG)”, for which the “recombinant UMI read abundance (log10)” value worked out at 0. With “CAGAACCCATGGACCGGTTTTCCCGGTAATCCGTATTTGAG (site CAGAACCCTCT)”, the “recombinant UMI read abundance (log10)” value came out at 1.35.

As for “CAGAAGACATGGACCGGTTTTCCCGGTAATCCGTATTTGCA (site AGGAAGACTTG)”, the “recombinant UMI read abundance (log10)” value is 0.401.

As to “CAGAAGACATGGACCGGTTTTCCCGGTAATCCGTATTTGCA (site CAGAAGACTTG)”, the “recombinant UMI read abundance (log10)” value worked out at 3.09. Regarding “CAGACGACATGGACCGGTTTTCCCGGTAATCCGTATTTGGG (site CAGACGACTCC)”, the “recombinant UMI read abundance (log10)” value was found to be 0.00735.

Consider “CAGACGACATGGACCGGTTTTCCCGGTAATCCGTATTTGGG (site CAGCCGACTCC)”, for which the “recombinant UMI read abundance (log10)” value was 0.0345. In the case of “CAGACGACATGGACCGGTTTTCCCGGTAATCCGTATTTGGG (site CAGGCGACTCC)”, the “recombinant UMI read abundance (log10)” value turned out to be 0.0123.

Consider “CAGACGACATGGACCGGTTTTCCCGGTAATCCGTATTTGGG (site CAGTCGACTCC)”, for which the “recombinant UMI read abundance (log10)” value came out at 0.0666.

On to “CAGATCCCATGGACCGGTTTTCCCGGTAATCCGTATTTGGT (site CAGATCCCTAC)”, for which the “recombinant UMI read abundance (log10)” value was found to be 1.42.

“CAGCACGCATGGACCGGTTTTCCCGGTAATCCGTATTTGAT (site CAGCACGCTAT)”: the “recombinant UMI read abundance (log10)” value is 2.39. As to “CAGCCGACATGGACCGGTTTTCCCGGTAATCCGTATTTGGG (site CAGACGACTCC)”, the “recombinant UMI read abundance (log10)” value was 0.0262.

For “CAGCCGACATGGACCGGTTTTCCCGGTAATCCGTATTTGGG (site CAGCCGACTCC)”, the “recombinant UMI read abundance (log10)” value was 0.188. Turning to “CAGCCGACATGGACCGGTTTTCCCGGTAATCCGTATTTGGG (site CAGGCGACTCC)”, the “recombinant UMI read abundance (log10)” value stood at 0.0119. For the sequence “CAGCCGACATGGACCGGTTTTCCCGGTAATCCGTATTTGGG (site CAGTCGACTCC)”, the “recombinant UMI read abundance (log10)” value was 0.00469. For the sequence “CAGCGAACATGGACCGGTTTTCCCGGTAATCCGTATTTGGG (site CAGCGAACTCC)”, the “recombinant UMI read abundance (log10)” value was found to be 0.888. As to “CAGCTACCATGGACCGGTTTTCCCGGTAATCCGTATTTGCT (site CAGCTACCTAG)”, the “recombinant UMI read abundance (log10)” value was determined as 0.

“CAGCTACCATGGACCGGTTTTCCCGGTAATCCGTATTTGCT (site CCGCTACCTAG)”: the “recombinant UMI read abundance (log10)” value is 0. Take “CAGCTACCATGGACCGGTTTTCCCGGTAATCCGTATTTGCT (site CGGCTACCTAG)”: the “recombinant UMI read abundance (log10)” value worked out at 0. For the sequence “CAGCTACCATGGACCGGTTTTCCCGGTAATCCGTATTTGCT (site CTGCTACCTAG)”, the “recombinant UMI read abundance (log10)” value is 0. With “CAGGAACCATGGACCGGTTTTCCCGGTAATCCGTATTTGAT (site CAGGAACCTAT)”, the “recombinant UMI read abundance (log10)” value turned out to be 0. In the case of “CAGGAACCATGGACCGGTTTTCCCGGTAATCCGTATTTGAT (site CCGGAACCTAT)”, the “recombinant UMI read abundance (log10)” value turned out to be 0.
